Source: US12489120B2, “Redox flow battery” (ELECTROCHEM, S.L., priority 2019, dated 2025)
Read-outs that look alike come from different tables or passages of the source. Blank lines part the entries; values can stand above or below the compound they belong to.

Tests used:
[1] = literature (Yunta et al. 2003); in M-1·cm-1 (unit assumed); cited from earlier work
[2] = Molar absorptivity at 480 nm in borate buffer pH 9; assay type: physicochemical; conditions: borate buffer pH 9, five repetitions; in M-1·cm-1 (unit assumed)
Protocol: The molar absorptivity was determined in borate buffer solutions at pH 9 (five repetitions). To define the exact complex concentration an understoichiometric amount of ferric iron was used and the excess of free ligand was tolerated, as the ligand is not electroactive.

[3] = Diffusion coefficients of ferric complexes from voltammetry; assay type: physicochemical; conditions: pH 9, borate buffer, this work
Protocol: The experiments also permit calculation of the diffusion coefficients (five solutions in the concentration range between 0.3 and 0.8 mM) (Table 3). Literature values for the Fe^3+ diffusion coefficient range from 3.3-6.5×10^−6 cm^2/s in acidic media to 8.6×10^−6 cm^2/s complexed as K3Fe(CN)6 in strongly basic media.

[4] = Cyclic voltammetry of Fe-EDDHA complexes in unbuffered 0.1 M NaClO4
Protocol: In order to minimize undesired ligand exchange reactions and solely observe the effect of pH on the redox properties, 0.1 M NaClO4 was chosen as electrolyte for the first set of experiments.
(§1) A Pt rod served as counter electrode, potentials refer to a (Ag/AgCl, 1 M NaCl) reference electrode. For each CV experiment at the mercury electrode, nine single measurements were recorded and averaged in order to minimize errors originating from drop size fluctuations. Copper electrodes were precleaned with 6 M HNO3 before use and equilibrated in electrolyte solution by running repetitive cycles. The planar glassy carbon electrode (Metrohm, 5 mm diameter) was polished on a polishing micro cloth (Buehler) with 0.05 μM alumina (Buehler) to a mirror like finish between the measurement series.

[5] = Cyclic voltammetry in borate buffer at Hg/Cu/GC electrodes; conditions: for E1/2 / ipa/ipc / jpc (peak current density) / ΔEp: 0.5 mM, 50 mM borate buffer pH 9, 0.1M NaClO4
Protocol: as §1
To avoid disturbing influences of local changes in pH within the diffusion layer of the electrodes, cyclic voltammetry with use of buffered solutions was performed.
A 100 mM NaClO4 background supporting electrolyte was used to maintain diffusion limited conditions and high solution conductivity. 50 mM boric acid was added to the NaClO4 supporting electrolyte and adjusted with NaOH to the desired pH value.

[6] = cited from earlier work
[7] = 0.5 mM, unbuffered 0.1M NaClO4, pH 9, Hg electrode
[8] = 0.5 mM, unbuffered 0.1M NaClO4, pH 9, Hg electrode, vs Ag/AgCl 1 M NaCl

Molar absorptivity (ε480 nm), this work [2]: 4546 ± 120 | Diffusion coefficient Do [3]: 5.78 10^−6 cm^2/s | ipa [4, 7]: 255 nA | ipa/ipc [4, 7]: 0.93 | ipc [4, 7]: −275 nA | ΔEP [4, 7]: 72 mV | E1/2 [4, 8]: −621 mV | Epa [4, 8]: −585 mV | Epc [4, 8]: −657 mV | pH range in which the voltammograms were independent on pH ([4]; unbuffered 0.1 M NaClO4): 6-9 | pH above which the complex hydrolyses ([4]; without buffer): > 9 | E1/2 ([5]; Cu electrode): −619 mV | ipa/ipc ([5]; Cu electrode): 1.06 | jpc (peak current density) ([5]; Cu electrode): 520 nA/mm^2 | ΔEp ([5]; Cu electrode): 132 mV | E1/2 ([5]; GC electrode): −616 mV | ipa/ipc ([5]; GC electrode): 0.94 1 | jpc (peak current density) ([5]; GC electrode): 817 nA/mm^2 | ΔEp ([5]; GC electrode): 67 mV | E1/2 ([5]; Hg electrode): −615 mV | ipa/ipc ([5]; Hg electrode): 0.93 1 | jpc (peak current density) ([5]; Hg electrode): 1167 nA/mm^2 | ΔEp ([5]; Hg electrode): 64 mV | slope of E1/2 vs pH ([5]; borate buffered solution, below pH 8 (racemic) / below pH 9 (meso)): −38 mV/pH | redox potential ([5]; pH 9, vs Ag/AgCl 1 M NaCl reference electrode): −615 mV
SMILES: O=C([O-])C(NCCNC(C(=O)[O-])c1ccccc1[O-])c1ccccc1[O-].[Fe+3] (stereo not shown) [Fe-mesoEDDHA]
Molar absorptivity (ε480 nm), lit. [1]: 4574 ± 53

SMILES: [Fe+3] [Fe^3+]
Diffusion coefficient, literature values ([6]; acidic media): 3.3-6.5 ×10^−6 cm^2/s | Diffusion coefficient Do ([6]; pH 0-1, source a (literature)): 3.3-6.5 10^−6 cm^2/s
